Assay results taken from article PMC13249423, “Capsaicin acts as a novel NRF2 agonist to suppress ethanol induced gastric mucosa oxidative damage by directly disrupting the KEAP1-NRF2 interaction” (eLife, 2026).

Experiments:
[1] = biological target: T1, KEAP1 (mutant Kelch domain) (Homo sapiens, UniProt Q14145, N382A/N414A/R380A/R415A/S602A/Y334A/Y572A); experiment: BLI with purified biotinylated mutant Kelch; type: binding
T1 construct: Kelch domain of KEAP1 (Lys312-Cys624)

KEAP1 (Kelch domain, WT) = biological target: T2, KEAP1 (Kelch domain, WT) (Homo sapiens, UniProt Q14145); experiment: BLI with purified biotinylated Kelch (also HDX-MS, CETSA in GES-1 cells, pull-down and SPR disruption of KEAP1-NRF2); type: binding
T2 construct: Kelch domain of KEAP1 (Lys312-Cys624)
T2 sequence (Q14145 312-624): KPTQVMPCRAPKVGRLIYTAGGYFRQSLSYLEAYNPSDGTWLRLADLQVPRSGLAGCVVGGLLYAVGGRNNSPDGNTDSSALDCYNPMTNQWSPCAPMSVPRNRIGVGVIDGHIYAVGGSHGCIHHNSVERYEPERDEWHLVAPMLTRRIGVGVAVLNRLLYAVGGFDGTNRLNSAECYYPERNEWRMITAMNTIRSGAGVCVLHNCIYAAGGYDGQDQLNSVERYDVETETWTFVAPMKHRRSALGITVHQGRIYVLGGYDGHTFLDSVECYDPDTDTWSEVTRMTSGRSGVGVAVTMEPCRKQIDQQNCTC

T1 sequence (Q14145 312-624 Y334A/R380A/N382A/N414A/R415A/Y572A/S602A): as the sequence (Q14145 312-624) above, with Y23A, R69A, N71A, N103A, R104A, Y261A, S291A counted along it

For `COc1cc(CNC(=O)CCCC/C=C/C(C)C)ccc1O` [CAP, capsaicin], which Kd [1] is on record?
The Kd was 102 µM.

What about the Kd (KEAP1 (Kelch domain, WT)) of the same compound?
The Kd was 31.5 µM.
